Where a SMILES comes first, the peptide text is derived from it. [ ]: non-standard residue; d: D form. hLeu = CC(C)CC[C@H](N)C(=O)O
Molecular target: T1, Interleukin-23 receptor (Homo sapiens, UniProt Q5VWK5)
T1 sequence (Q5VWK5 whole entry): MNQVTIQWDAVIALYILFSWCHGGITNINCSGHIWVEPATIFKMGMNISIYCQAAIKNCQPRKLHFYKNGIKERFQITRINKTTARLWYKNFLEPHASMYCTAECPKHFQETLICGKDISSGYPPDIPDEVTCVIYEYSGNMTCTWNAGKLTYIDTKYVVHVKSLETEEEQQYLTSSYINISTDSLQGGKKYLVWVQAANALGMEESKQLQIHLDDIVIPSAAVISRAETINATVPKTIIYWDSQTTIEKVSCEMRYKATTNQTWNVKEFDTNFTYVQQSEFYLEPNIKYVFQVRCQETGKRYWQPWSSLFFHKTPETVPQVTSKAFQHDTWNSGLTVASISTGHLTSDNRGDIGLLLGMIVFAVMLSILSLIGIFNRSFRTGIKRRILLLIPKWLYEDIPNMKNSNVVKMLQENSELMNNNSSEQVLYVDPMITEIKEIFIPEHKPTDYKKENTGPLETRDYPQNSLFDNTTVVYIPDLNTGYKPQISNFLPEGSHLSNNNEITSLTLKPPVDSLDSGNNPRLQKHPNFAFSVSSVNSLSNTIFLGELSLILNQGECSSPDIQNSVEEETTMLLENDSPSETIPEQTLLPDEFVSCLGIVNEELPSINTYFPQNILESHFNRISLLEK
Experiment: Inhibition of interleukin-23 binding to human interleukin-23 receptor incubated for 2 hrs by competitive binding ELISA

Structure (SMILES) | IC50
CC(=O)N[C@@H](CS)C(=O)N[C@@H](CCC(N)=O)C(=O)N[C@H](C(=O)N[C@@H](Cc1c[nH]c2ccccc12)C(=O)N[C@@H](CCC(N)=O)C(=O)N[C@@H](CS)C(=O)N1Cc2ccccc2C[C@H]1C(=O)N[C@@H](Cc1c[nH]c2ccccc12)C(=O)N[C@@H](CCC(C)C)C(=O)N[C@@H](CCC(=O)O)C(=O)N[C@@H](CC(N)=O)C(=O)NCC(N)=O)[C@@H](C)O | > 30 µM
CC(C)[C@H](NC(=O)[C@H](Cc1c[nH]c2ccccc12)NC(=O)[C@@H](NC(=O)[C@H](CCC(N)=O)NC(=O)[C@@H](N)CS)[C@@H](C)O)C(=O)N[C@@H](CS)C(=O)N[C@@H](Cc1ccc(O)cc1)C(=O)N[C@@H](Cc1c[nH]c2ccccc12)C(=O)N[C@@H](Cc1cnc[nH]1)C(=O)N[C@H](C(=O)N[C@@H](Cc1ccc(O)cc1)C(=O)NCC(N)=O)[C@@H](C)O (H-CQTWVCYWHTYG-NH2) | > 1 µM
CC(=O)NCCCC[C@H](NC(=O)[C@](C)(CCCCN)NC(=O)[C@H](Cc1ccc2ccccc2c1)NC(=O)[C@H](Cc1ccc(N)cc1)NC(=O)[C@@H](NC(=O)[C@H](CCC(N)=O)NC(=O)[C@H](Cc1c[nH]c2ccccc12)NC(=O)[C@@H](NC(=O)[C@H](CCC(N)=O)NC(=O)[C@@H](NC(C)=O)C(C)(C)S)[C@@H](C)O)C(C)(C)S)C(=O)N[C@@H](CC(N)=O)C(=O)NCC(N)=O | 0.1 to 1 µM
CC(=O)N[C@@H](CS)C(=O)N[C@@H](CCC(N)=O)C(=O)N1CCC[C@H]1C(=O)N[C@@H](Cc1c[nH]c2ccccc12)C(=O)N[C@@H](CCC(N)=O)C(=O)N[C@@H](CS)C(=O)N[C@@H](Cc1ccc(O)cc1)C(=O)N[C@@H](Cc1c[nH]c2ccccc12)C(=O)N[C@@H](CCC(C)C)C(=O)N[C@@H](CCC(=O)O)C(=O)N[C@@H](CC(N)=O)C(=O)NCC(N)=O (Ac-CQPWQCYW[hLeu]ENG-NH2) | > 10 µM
CC[C@H](C)[C@H](NC(=O)[C@H](Cc1cnc[nH]1)NC(=O)[C@H](Cc1c[nH]c2ccccc12)NC(=O)[C@H](Cc1ccc(O)cc1)NC(=O)[C@H](CS)NC(=O)[C@H](CCC(=O)O)NC(=O)[C@H](Cc1c[nH]c2ccccc12)NC(=O)[C@H](CC(=O)O)NC(=O)[C@H](CO)NC(=O)[C@@H](N)CS)C(=O)N[C@@H](Cc1ccccc1)C(=O)NCC(N)=O (H-CSDWECYWHIFG-NH2) | > 1 µM
CC(C)[C@H](NC(=O)[C@H](Cc1c[nH]c2ccccc12)NC(=O)[C@H](CC(=O)O)NC(=O)[C@H](C)NC(=O)[C@@H](N)CS)C(=O)N[C@@H](CS)C(=O)N[C@@H](Cc1ccc(O)cc1)C(=O)N[C@@H](Cc1cccc2ccccc12)C(=O)N[C@@H](Cc1cnc[nH]1)C(=O)N[C@H](C(=O)N[C@@H](Cc1ccccc1)C(=O)NCC(N)=O)[C@@H](C)O | 0.5 to 1 µM
CC(=O)N[C@@H](CS)C(=O)N[C@@H](CCC(N)=O)C(=O)N[C@H](C(=O)N[C@H](C(=O)N[C@@H](CCC(N)=O)C(=O)N[C@@H](CS)C(=O)N[C@@H](Cc1ccc(O)cc1)C(=O)N[C@@H](Cc1c[nH]c2ccccc12)C(=O)N[C@@H](CCC(C)C)C(=O)N[C@@H](CCC(=O)O)C(=O)N[C@@H](CC(N)=O)C(=O)NCC(N)=O)[C@@H](C)O)[C@@H](C)O (Ac-CQTTQCYW[hLeu]ENG-NH2) | > 10 µM
CC(=O)N[C@@H](CS)C(=O)N[C@@H](C)C(=O)N[C@@H](CC(=O)O)C(=O)N[C@@H](Cc1c[nH]c2ccccc12)C(=O)N[C@H](C(=O)N[C@@H](CS)C(=O)N[C@@H](Cc1ccc(O)cc1)C(=O)N[C@@H](Cc1c[nH]c2ccccc12)C(N)=O)C(C)C | > 30 µM
CC(=O)N[C@H](C(=O)N[C@@H](CCC(N)=O)C(=O)N[C@H](C(=O)N[C@@H](Cc1c[nH]c2ccccc12)C(=O)N[C@@H](CCC(N)=O)C(=O)N[C@H](C(=O)N[C@@H](Cc1cc(F)cc(F)c1)C(=O)N[C@@H](Cc1ccc2ccccc2c1)C(=O)N[C@@](C)(CCCN)C(=O)N[C@@H](CCC(N)=O)C(=O)N[C@@H](CC(N)=O)C(=O)NCC(N)=O)C(C)(C)S)[C@@H](C)O)C(C)(C)S | 0.1 to 1 µM
CC(=O)N[C@H]1CCSC[C@@H](C(=O)N[C@@H](Cc2ccc(OCCN)cc2)C(=O)N[C@@H](Cc2ccc3ccccc3c2)C(=O)N[C@@](C)(CCCCN)C(=O)N[C@@H](CCC(=O)O)C(=O)N[C@@H](CC(N)=O)C(=O)NCC(N)=O)NC(=O)[C@H](CCC(N)=O)NC(=O)[C@@H]2Cc3c([nH]c4ccccc34)CN2C(=O)[C@H]([C@@H](C)O)NC(=O)[C@H](CCC(N)=O)NC1=O | 0.1 to 1 µM
CC(=O)NCCCC[C@H](NC(=O)[C@](C)(CCCCN)NC(=O)[C@H](Cc1ccc2ccccc2c1)NC(=O)[C@@H](NC(=O)[C@H](CCC(N)=O)NC(=O)[C@H](Cc1c[nH]c2ccccc12)NC(=O)[C@@H](NC(=O)[C@H](CCC(N)=O)NC(=O)[C@@H](NC(C)=O)C(C)(C)S)[C@@H](C)O)C(C)(C)S)C(=O)N[C@@H](CC(N)=O)C(=O)NCC(N)=O | > 10 µM

Next, values leading:

IC50 | Structure (SMILES)
< 0.5 µM | CC(=O)N[C@@H](CS)C(=O)N[C@@H](C)C(=O)N[C@@H](CC(=O)O)C(=O)N[C@@H](Cc1c[nH]c2ccccc12)C(=O)N[C@H](C(=O)N[C@@H](CS)C(=O)N[C@@H](Cc1ccc(O)cc1)C(=O)N[C@@H](Cc1c[nH]c2ccccc12)C(=O)N[C@@H](Cc1cnc[nH]1)C(=O)N[C@H](C(=O)N[C@@H](Cc1ccccc1)C(=O)NCC(=O)N[C@@H](CCC(=O)O)C(=O)N[C@@H](CCCNC(=N)N)C(N)=O)[C@@H](C)O)C(C)C
< 0.5 µM | CC(=O)N[C@@H](CS)C(=O)N[C@@H](CCC(N)=O)C(=O)N[C@H](C(=O)N[C@@H](Cc1c[nH]c2ccccc12)C(=O)N[C@@H](CCC(N)=O)C(=O)N[C@@H](CS)C(=O)N[C@@H](Cc1ccc(O)cc1)C(=O)N[C@@H](Cc1c[nH]c2ccccc12)C(=O)N[C@@H](CCCNC(=N)N)C(=O)N[C@@H](CCC(=O)O)C(=O)N[C@@H](CC(N)=O)C(=O)NCC(=O)NCCOCC(=O)N[C@H](CCCCN)C(N)=O)[C@@H](C)O
6 µM | CCC(CC)(NC(=O)[C@H](CCCN)NC(=O)[C@H](Cc1c[nH]c2ccccc12)NC(=O)[C@H](Cc1ccc(O)cc1)NC(=O)[C@H](CS)NC(=O)[C@@H](NC(=O)[C@H](Cc1c[nH]c2ccccc12)NC(=O)[C@H](CC(=O)O)NC(=O)[C@H](C)NC(=O)[C@H](CS)NC(C)=O)C(C)C)C(=O)N[C@@H](Cc1ccccc1)C(=O)NCC(=O)NCCOCC(=O)N[C@H](CCCCN)C(N)=O
> 30 µM | CC(=O)NCC(=O)N[C@H](CC(N)=O)C(=O)N[C@H](CCC(=O)O)C(=O)N[C@H](CC(C)C)C(=O)N[C@H](Cc1c[nH]c2ccccc12)C(=O)N[C@H](Cc1ccc(O)cc1)C(=O)N[C@H](CS)C(=O)N[C@H](CCC(N)=O)C(=O)N[C@H](Cc1c[nH]c2ccccc12)C(=O)N[C@@H](C(=O)N[C@H](CCC(N)=O)C(=O)N[C@H](CS)C(N)=O)[C@H](C)O
> 30 µM | CC(=O)N[C@@H](CS)C(=O)N[C@@H](CCC(N)=O)C(=O)N[C@H](C(=O)N[C@@H](Cc1c[nH]c2ccccc12)C(=O)N[C@@H](CCC(N)=O)C(=O)N[C@@H](CS)C(=O)N[C@@H](Cc1ccc(O)cc1)C(=O)N1Cc2ccccc2C[C@H]1CC(=O)N[C@@H](CCCNC(=N)N)C(=O)N[C@H](C(=O)N[C@@H](CC(N)=O)C(=O)NCC(=O)NCCOCC(=O)N[C@H](CCCCN)C(N)=O)C(C)C)[C@@H](C)O
> 30 µM | CC(=O)N[C@@H](CS)C(=O)N[C@@H](CCC(N)=O)C(=O)N[C@H](C(=O)N[C@@H](Cc1c[nH]c2ccccc12)C(=O)N[C@@H](CCC(N)=O)C(=O)N[C@@H](CS)C(=O)N[C@@H](Cc1ccc(O)cc1)C(=O)N[C@H](CC(=O)N[C@@H](CCCNC(=N)N)C(=O)N[C@H](C(=O)N[C@@H](CC(N)=O)C(=O)NCC(=O)NCCOCC(=O)N[C@H](CCCCN)C(N)=O)C(C)C)Cc1cccc2ccccc12)[C@@H](C)O
> 1 µM | CC(=O)N[C@@H](CS)C(=O)N[C@@H](C)C(=O)N[C@@H](CC(=O)O)C(=O)N[C@@H](Cc1c[nH]c2ccccc12)C(=O)N[C@H](C(=O)N[C@@H](CS)C(=O)N[C@@H](Cc1ccc(O)cc1)C(=O)N[C@@H](Cc1cccc2ccccc12)C(=O)N[C@H](C)C(=O)N[C@H](C(=O)N[C@@H](Cc1ccccc1)C(=O)NCC(N)=O)[C@@H](C)O)C(C)C
6 µM | CC(=O)N[C@@H](CS)C(=O)N[C@@H](C)C(=O)N[C@@H](CC(=O)O)C(=O)N[C@@H](Cc1c[nH]c2ccccc12)C(=O)N[C@H](C(=O)N[C@@H](CS)C(=O)N[C@@H](Cc1ccc(O)cc1)C(=O)N[C@@H](Cc1cc(F)cc(F)c1)C(=O)N[C@@H](CCCN)C(=O)N[C@@H](CN)C(=O)N[C@@H](Cc1ccccc1)C(=O)NCC(=O)NCCOCC(=O)N[C@H](CCCCN)C(N)=O)C(C)C
> 1 µM | CC(=O)N[C@@H](CS)C(=O)N[C@@H](CCCNC(=N)N)C(=O)N[C@@H](CC(=O)O)C(=O)N[C@@H](Cc1c[nH]c2ccccc12)C(=O)N[C@@H](CCC(N)=O)C(=O)N[C@@H](CS)C(=O)N[C@@H](Cc1ccc(O)cc1)C(=O)N[C@@H](Cc1c[nH]c2ccccc12)C(=O)N[C@H](CCCNC(=N)N)C(=O)N[C@H](CCCCN)C(=O)N[C@@H](Cc1ccccc1)C(=O)NCC(=O)NCCOCCC(=O)N[C@H](CCCCN)C(N)=O
> 1 µM | CC(C)[C@H](NC(=O)[C@H](Cc1c[nH]c2ccccc12)NC(=O)[C@H](CC(=O)O)NC(=O)[C@H](C)NC(=O)[C@@H](N)CS)C(=O)N[C@@H](CS)C(=O)N[C@@H](Cc1ccc(O)cc1)C(=O)N[C@@H](C)C(=O)N[C@@H](Cc1cnc[nH]1)C(=O)N[C@H](C(=O)N[C@@H](Cc1ccccc1)C(=O)NCC(N)=O)[C@@H](C)O
> 1 µM | CC(C)[C@H](NC(=O)[C@H](Cc1ccc2ccccc2c1)NC(=O)[C@H](CC(=O)O)NC(=O)[C@H](C)NC(=O)[C@@H](N)CS)C(=O)N[C@@H](CS)C(=O)N[C@@H](Cc1ccc(O)cc1)C(=O)N[C@@H](Cc1c[nH]c2ccccc12)C(=O)N[C@@H](Cc1cnc[nH]1)C(=O)N[C@H](C(=O)N[C@@H](Cc1ccccc1)C(=O)NCC(N)=O)[C@@H](C)O

From ChEMBL document CHEMBL4417631, “Oral peptide inhibitors of interleukin-23 receptor and their use to treat inflammatory bowel diseases” (2017)
